Patent US10066208B2, “Kit and method for promoting mesenchymal stem cell differentiation” (priority 2014, dated 2018)

What was measured:
mesenchymal stem cell [1] = experiment: Alcian Blue stain of mesenchymal stem cell condensation and glycosaminoglycan secretion, 2-dimensional plate culture; format: cell-based, Wistar rats; conditions: 3 and 7 days, vs control without kartogenin
Source text: The Isolation and Culture of the Mesenchymal Stem Cell • 1. The cell source was taken from the four limbs of two-week old Wistar rats. Rats were sacrificed and immersed in 75% alcohol. The operation process for taking four limbs was under half sterile environment. • 2. During the cellular collecting processes, sterilized equipments were used in the whole processes. Both tibia and femur of the lower limb were taken. The tip of the scissor was used to separate the bone and the muscle. The knee joints and the hip joints were taken down along the bones; the part near the ankle was difficult to remove completely, so a direct cut was made close to the ankle joints. Only the humerus in upper limb had enough amounts of cells, so just took humerus and the scapula was processed as ankle joints in having a direct cut. Finally the limbs were soaked and washed in phosphate buffer solution (PBS) with 10% antibiotics (penicillin 10,000/ml, streptomycin 10 mg/ml, amphotericin-B 0.025 mg/ml). • 3. The muscle on the limbs was clearly removed under solution, the protruding parts of the two ends were cut out and soaked into new PBS (containing 1% antibiotics). Cells were washed out by syringe filled with PBS. • 4. PBS containing cells was placed in centrifuge tubes and centrifugated at 2000 rpm for 5 minutes. The red blood cells were suspended cells which adhered to and flowed with the mesenchymal stem cell. […]

mesenchymal stem cell [2] = experiment: Real-time PCR gene expression of mesenchymal stem cell, 2-dimensional plate culture; format: cell-based, Wistar rats
Source text: The Isolation and Culture of the Mesenchymal Stem Cell • 1. The cell source was taken from the four limbs of two-week old Wistar rats. Rats were sacrificed and immersed in 75% alcohol. The operation process for taking four limbs was under half sterile environment. • 2. During the cellular collecting processes, sterilized equipments were used in the whole processes. Both tibia and femur of the lower limb were taken. The tip of the scissor was used to separate the bone and the muscle. The knee joints and the hip joints were taken down along the bones; the part near the ankle was difficult to remove completely, so a direct cut was made close to the ankle joints. Only the humerus in upper limb had enough amounts of cells, so just took humerus and the scapula was processed as ankle joints in having a direct cut. Finally the limbs were soaked and washed in phosphate buffer solution (PBS) with 10% antibiotics (penicillin 10,000/ml, streptomycin 10 mg/ml, amphotericin-B 0.025 mg/ml). • 3. The muscle on the limbs was clearly removed under solution, the protruding parts of the two ends were cut out and soaked into new PBS (containing 1% antibiotics). Cells were washed out by syringe filled with PBS. • 4. PBS containing cells was placed in centrifuge tubes and centrifugated at 2000 rpm for 5 minutes. The red blood cells were suspended cells which adhered to and flowed with the mesenchymal stem cell. The supernatant was carefully removed. • 5. Hank's Balanced Salt Solution (HBSS) was added into the centrifugated cells. After mixing up, 5 mL of HBSS mixed with cells was added into 5 mL of Ficoll separating solution and centrifugated at 18-20° C. at the speed 300 g for 40 minutes. • 6. After centrifugation, the supernatant was sucked out; large amount of PBS was added to dilute the Ficoll separating solution and washed for 2-3 times. • 7. Medium was added into the centrifugated cells and mixed up for culturing. Dulbecco's Modified Eagle Medium (DMEM) with 10% fetal bovine serum (FBS) was used for the stem cell medium in this example. • 8. After the cells attached, the medium was changed every 2-3 days. When the cells was fully confluent, subcultured as the proportion of one to three or one to four.
(§1) The gene expression of the mesenchymal stem cell was examined by Real-time PCR. The results were used for determining the medium formulation in the following scaffold culture and bioreactor culture. The primers used in the present invention were shown as the following table:
The cells cultured in DMEM with 10% FBS were used as the control group.

mesenchymal stem cell [3] = experiment: Live and death staining (Calcein-AM/PI) of mesenchymal stem cell in tri-copolymer scaffold, static culture; format: cell-based, Wistar rats; conditions: 1.0 kartogenin, 7 days, vs control group
Description: (§2) The mesenchymal stem cells used in the present invention were in the third generation of subculture to ensure the maintenance of the cell morphology. The proliferated stem cells were dissociated by trpsin, collected and condensed to 10^7 cells/mL. 50 μL of the cell solution was seeded on each dry scaffold. The cells were divided into static culture group and bioreactor culture group. The former changed the medium every 2 to 3 days and in the latter, after cells seeding into the scaffold and culturing for one day, it was moved into the bioreactor.
After the combination of the gelatin-hyaluronan-chondroitin tri-copolymer with the mesenchymal stem cell, the differentiating effects under the 3-dimensional culture were confirmed. Through the live and death staining, the cell condensation during early differentiation stage was examined at the presence of 1.0 kartogenin. […] Apoptosis was the process during chondrogenic differentiation of stem cell.
The fluorescent staining of Calcein-AM and Propidium Iodide (PI) was used to examine the survival distribution of the cells in the scaffold. The former was lipophilic which could easily enter into the living cell and being hydrolyzed to produce fluorescent compounds, calcein, so that only the living cell could be stained with Calcin-AM. […] When PI bound to a DNA double helix, it emitted red fluorescence. […]

mesenchymal stem cell [4] = experiment: Real-time PCR gene expression of mesenchymal stem cell in tri-copolymer scaffold with kartogenin, bioreactor culture; format: cell-based, Wistar rats
Source text: as §1, §2
After culturing the tri-copolymer material, the mesenchymal stem cell and kartogenin in the bioreactor for 7, 14 and 21 days, mRNA genes expression were examined. In this example, the control group was the mesenchymal stem cell culturing […].
After culturing in the bioreactor for 7, 14, and 21 days, mRNA gene expression was examined. In this example, the control group was the mesenchymal stem cell culturing on the 2-dimensional plate for 1 day.

mesenchymal stem cell [5] = experiment: Hematoxylin/Eosin histological examination of cell-material complex sections, bioreactor culture; format: cell-based, Wistar rats; conditions: tri-copolymer scaffold
Description: After combining the gelatin-hyaluronan-chondroitin tri-copolymer and the stem cell, the coculture construct was seeded and transferred into the dynamic bioreactor for culturing. The morphology of the differentiated cells were stained with Hematoxylin/Eosin, and in the present example, the cell-material complex sections were examined at 3 time points: Day 0, 7 and 21.

mesenchymal stem cell [6] = experiment: Immunohistochemical staining of aggrecan and type II collagen, bioreactor culture; format: cell-based, Wistar rats; conditions: tri-copolymer scaffold, kartogenin
Description: The aggrecan and the type II collagen were characteristic proteins of the cartilage cells. The coculture structure was cultured in the dynamic bioreactor and the expressions of the proteins were presented by immunohistochemical staining. The samples culturing under the dynamic culture environment for 7, 14, and 21 days were washed in PBS, immersed in 2.5% formaldehyde for 30 minutes for immobilization. The samples were paraffin-embedded and sectioned into 5 μm. The immunohistochemistry was used to examine the characteristic protein of the cartilage cells which comprises the aggrecan and the type II collagen. After dewaxing by xylene and rehydration, the activity of endogenous peroxidase was cleaned by Hydrogen Peroxide Block reagent (ab80436, abcam, MA, USA). After antigen was repaired, non-specific background protein was bound by Protein Block (ab80436). The primary antibodies (rabbit anti-collagen-II (ab53047), rabbit anti-aggrecan (GTX86902)) of type II collagen and aggrecan were reacted with the tissue slices at 4° C. for 12 hr. After rinsing, the slices were bound with horseradish peroxidase (HRP) conjugated secondary antibody (goat anti-rabbit HRP conjugate). […] Last, the hematoxylin was incubated with the slices at room temperature for 30 minutes for counterstain.
In the present example, the cell-material complex sections were examined at 3 time points: Day 0, 7 and 21. […]

mesenchymal stem cell [7] = experiment: Safranin-O staining of glycosaminoglycans, bioreactor culture; format: cell-based, Wistar rats; conditions: tri-copolymer scaffold, kartogenin, 21 days
Source text: Glycosaminoglycans (GAGs) were mainly the content of the extracellular matrix secreted by the chondrocyte.
The cells were distributed on the tri-copolymer scaffold at the beginning of culture. Red was for Safranin-O staining. The Safranin-O staining of the background was from the chondroitin-6-sulfate of the material itself which was one of the Glycosaminoglycans. […] After the cell culturing for 21 days, the cell mass was examined, of which size was about 100 μm.

mesenchymal stem cell [8] = experiment: DMMB quantification of glycosaminoglycans in the bioreactor medium; format: cell-based, Wistar rats; conditions: tri-copolymer scaffold, kartogenin, day 7, 14 and 21
Description: 1,9-dimethylmethlene blue (DMMB) method was used for quantifying Glycosaminoglycans (GAGs). 16 mg of DMMB was dissolved in 5 mL of 95% ethanol and diluted with 3 mL of formic acid and 25.6 mL of NaOH. Double distilled water was used to adjust the final volume to 1 liter, and the solution was maintained at pH 3.5.
250 μL of the DMMB solutions were added into 40 μL of the diluted sample solutions which were from different time points. After reacted in the dark for 10 min, the absorbance of 520 nm was detected and then the GAGs concentration was determined by interpolated onto the standard curve calculated by the chondroitin-6-sulfate.
The GAGs concentrations in the medium were determined by the DMMB method through collecting samples from the bioreactor at different time points.

hMSC = conditions: cited from earlier work
[9] = day 7, control MSC on 2-dimensional plate 1 day
[10] = day 14, control MSC on 2-dimensional plate 1 day
[11] = day 21, control MSC on 2-dimensional plate 1 day

Compound: O=C(O)c1ccccc1C(=O)Nc1ccc(-c2ccccc2)cc1 [kartogenin]
- early condensation and secretion of glycosaminoglycans (Alcian Blue stain) (mesenchymal stem cell [1]; 0.1 μM kartogenin): promoted the condensation phenomenon
- early condensation and secretion of glycosaminoglycans (Alcian Blue stain) (mesenchymal stem cell [1]; 1.0 μM kartogenin): promoted the condensation phenomenon
- TIMPs expression compared to the control group (mesenchymal stem cell [2]; 0.1 μM kartogenin, day 14): 0.91±0.04 fold
- Sox-9 gene expression relative to the control group (mesenchymal stem cell [2]; 1.0 μM kartogenin, 7 days): 1.66±0.27 fold
- Aggrecan gene expression (mesenchymal stem cell [2]; 1.0 μM kartogenin, 7 days, higher than 0.1 μM group (p<0.001)): 3.99±0.63 fold
- Aggrecan gene expression compared to the untreated group (mesenchymal stem cell [2]; 1.0 μM kartogenin, 14 days): 6.44±0.35 fold
- Sox-9 gene expression (mesenchymal stem cell [2]; 1.0 μM kartogenin, day 3 and day 7): up-regulated
- Sox-9 gene expression (mesenchymal stem cell [2]; 1.0 μM kartogenin, day 14): 0.56±0.04 fold
- TIMPs expression compared to the control group (mesenchymal stem cell [2]; 1.0 μM kartogenin, day 14): 1.63±0.249 fold
- cell condensation (live and death staining) (mesenchymal stem cell [3]): cell condensation was occurred
- proportion of cell death (live and death staining) (mesenchymal stem cell [3]): higher
- Aggrecan expression compared to the control group (mesenchymal stem cell [4]; day 7): 11.66±4.75 fold
- Col2a1 gene expression compared to the control group (mesenchymal stem cell [4]; day 7): 13.6±4.7 fold
- TIMPs expression (mesenchymal stem cell [4]; day 7): 5.60±1.24 fold
- Sox-9 expression (mesenchymal stem cell [4]; day 7, control MSC cultured 1 day): 2.51±0.90 fold
- Col1a1 expression compared to the control group (mesenchymal stem cell [4]; [9]): 13.19±2.90 fold
- Col10a1 expression (mesenchymal stem cell [4]; [9]): 39.23±9.39 fold
- Runx 2 expression compared to the control group (mesenchymal stem cell [4]; [9]): 8.60±3.55 fold
- Aggrecan expression compared to the control group (mesenchymal stem cell [4]; day 14): 12.33±6.3 fold
- Col2a1 gene expression compared to the control group (mesenchymal stem cell [4]; day 14): 28.26±11.64 fold
- TIMPs expression (mesenchymal stem cell [4]; day 14): 5.79±5.25 fold
- Sox-9 expression (mesenchymal stem cell [4]; day 14, control MSC cultured 1 day): 3.91±2.12 fold
- Col1a1 expression compared to the control group (mesenchymal stem cell [4]; [10]): 17.26±1.38 fold
- Col10a1 expression (mesenchymal stem cell [4]; [10]): 36.08±26.00 fold
- Runx 2 expression compared to the control group (mesenchymal stem cell [4]; [10]): 9.89±3.82 fold
- Aggrecan expression compared to the control group (mesenchymal stem cell [4]; day 21): 9.74±3.83 fold
- Col2a1 gene expression compared to the control group (mesenchymal stem cell [4]; day 21): 40.32±9.13 fold
- TIMPs expression (mesenchymal stem cell [4]; day 21): 3.94±1.08 fold
- Sox-9 expression (mesenchymal stem cell [4]; day 21, control MSC cultured 1 day): 3.06±0.99 fold
- Col1a1 expression compared to the control group (mesenchymal stem cell [4]; [11]): 13.14±6.07 fold
- Col10a1 expression (mesenchymal stem cell [4]; [11]): 5.56±5.23 fold
- Runx 2 expression compared to the control group (mesenchymal stem cell [4]; [11]): 7.35±1.96 fold
- cell condensation (Hematoxylin/Eosin section) (mesenchymal stem cell [5]; kartogenin induction, day 7): cell condensation was presence
- lacunae structure (Hematoxylin/Eosin section) (mesenchymal stem cell [5]; kartogenin, day 21): lacunae like structure was examined
- size of the cell mass (Hematoxylin/Eosin section) (mesenchymal stem cell [5]; kartogenin, day 21): about 100 μm
- type II collagen expression (immunohistochemical staining) (mesenchymal stem cell [6]; day 7 and 21, not distinct at day 0): positively stained
- aggrecan expression (immunohistochemical DAB staining) (mesenchymal stem cell [6]; day 21 compared with day 7): higher expression of aggrecan
- accumulation of GAGs (Safranin-O staining) (mesenchymal stem cell [7]): accumulation of the GAGs was examined on the surface of the cell mass
- size of the cell mass (Safranin-O/Hochest staining) (mesenchymal stem cell [7]): about 100 μm
- secretion of GAGs into the medium (DMMB method) (mesenchymal stem cell [8]): increased
- EC50 (hMSC): 100 nM
